{"source": "patent US20030229134A1", "about": "“Methods for stimulating nervous system regeneration and repair by inhibiting phosphodiesterase type 4” (priority 2000, published 2003)", "key": {"[1]": {"system": "cerebellar neurons on purified, immobilized myelin", "assay": "Priming of cerebellar neurons with rolipram; neurite outgrowth on purified, immobilized myelin", "assay_type": "cell-based, rat", "conditions": "priming with rolipram 0.25 uM, FIG. 2B", "experimental": "Isolated cerebellar neurons in SATO media (prepared as in Example 1) were plated onto poly-L-lysine-coated dishes at 1×10^6 cells/dish. Where indicated, either BDNF at a concentration of 200 ng/ml, or rolipram at a concentration 0.1 uM or 0.25 uM (all from Sigma) was added. After culture for 18 hours (termed priming), neurons were removed with 0.1% trypsin. Trypsinization was stopped by adding 5 ml of DMEM containing 10% FCS. The primed neurons were centrifuged at 800 rpm for 6 min and resuspended in SATO media. The concentration of cells were adjusted to 6×10^4 cells/ml. […] Myelin was prepared as described previously (Cai et al., 1999) from rat CNS white matter. Neurons were cultured overnight before being fixed and immunostained for GAP43 to visualize the neurites. The length of the longest neurite per neuron, from 180-200 neurons, was measured. Results are presented as the average length+/−SEM in micrometers (um). (See, e.g., U.S. Pat. Nos. 5,932,542 and 6,203,792)."}, "[2]": {"system": "cerebellar neurons and DRG neurons on MAG-expressing CHO cells", "assay": "Subcutaneous rolipram injections into P12 rats; neurite outgrowth of isolated neurons on MAG-expressing CHO cells", "assay_type": "in vivo, rat", "experimental": "In order to determine whether a PDE4 specific inhibitor could be used to prime neurons in vivo and prevent inhibition of neurite outgrowth by myelin and MAG, rolipram was injected subcutaneously into P12 and P30 rats every 3 hours for 24 hours. For all experiments, rolipram was dissolved in DMSO and sterile saline was added to adjust the concentrations. The final volume of the rolipram solution was 0.2 ml for each injection. At each time point, a single rolipram injection was given. Rolipram was injected subcutaneously with insulin syringes (Becton Dickinson 1 ccU-100 insulin Syringe) under the skin of the rat's neck (for all experiments) and in various other regions (only for first experiment using P12 rats). Control animals were injected with a 0.2 ml mixture of DMSO and sterile saline without rolipram, following the same schedule.\nRolipram was injected subcutaneously into P12 rats at concentrations of 0, 7.5, 20, 25 or 40 nmol/kg every 3 hours for 24 hours before sacrificing. […] Cerebellar neurons were isolated as described in Example 1. Dorsal root ganglia (DRG) neurons were isolated as described previously (De Bellard et al., 1996). Briefly, ganglia were removed from the animals and incubated in 5 ml of SATO media containing 0.025% of trypsin and 0.15% of collagenase type I (Worthington) for 1 hour at 37° C. The ganglia were triturated and trypsinization was stopped by adding 5 ml of DMEM containing 10% FCS. Ganglia were centrifuged at 800 rpm for 6 min, and resuspended in SATO. Neurons were cultured overnight on CHO monolayers as described in Example 1 before being fixed and immunostained for GAP43 to visualize the neurites, as described in Example 1. As a positive control, some neurons from control animals were also cultured overnight in the presence of 1 mM dbcAMP. The length of the longest neurite per neuron, from 180-200 neurons, was measured and results are the average length+/−SEM. Results are expressed as a percentage of growth of the neurons isolated from control animals, treated with saline/DMSO injections and plated on control CHO cells, without dbcAMP or rolipram treatment."}, "[3]": {"system": "DRG neurons on MAG-expressing CHO cells", "assay": "Continuous subcutaneous rolipram delivery by minipumps to P30 rats; neurite outgrowth of isolated DRG neurons on MAG-expressing CHO cells", "assay_type": "in vivo, rat", "conditions": "for axonal outgrowth in the presence of MAG and on control CHO cells: minipump 0.4 umol/kg/hour", "experimental": "Rolipram was delivered subcutaneously with ALZET 2001 minipumps. Minipumps were inserted subcutaneously under the skin of the animals' backs. Two minipumps were used for each animal; the combined flow rate was 2 ul/hour. Rolipram was dissolved in DMSO and sterile saline was added to adjust the doses of rolipram that were released from minipumps every hour. After 24 hours of treatment, DRG neurons were isolated from control and treated animals and plated onto a monolayer of MAG-expressing CHO cells or a monolayer of control CHO cells. Neurons were cultured overnight before being fixed and immunostained for GAP43 to visualize the neurites. The length of the longest neurite per neuron from 180-200 neurons was measured. Results are expressed as a percentage of growth of the neurons isolated from control animals and are shown as the average length+/−SEM presented as percentage of growth on control cells.\nIn order to determine whether longer continuous treatment with a PDE4 inhibitor would increase the relief of inhibition of neurite outgrowth by myelin or MAG, rolipram was administered subcutaneously by minipump (0.4 umol/kg/hour). After 1, 2 or 3 days of continuous rolipram treatment, DRG neurons were isolated from control and treated animals and plated onto a monolayer of MAG-expressing CHO cells or a monolayer of control CHO cells. Neurons were cultured overnight before being fixed and immunostained for GAP43 to visualize the neurites. The length of the longest neurite per neuron from 180-200 neurons was measured. Results are expressed as a percentage of growth of the neurons isolated from control animals and are shown as the average length+/−SEM, presented as a percentage of growth on control cells."}, "rats": {"system": "rats", "conditions": "cited from earlier work"}, "mice": {"system": "mice", "conditions": "cited from earlier work"}, "[4]": {"system": "animal model for multiple sclerosis", "conditions": "cited from earlier work"}, "[5]": {"system": "rats with complete spinal cord transection", "assay": "Complete transection of the spinal cord with Schwann cell bridge; BBB test of hindlimb locomotion", "assay_type": "in vivo, rat", "source_text": "A “BBB Score” is the result of a test developed by Basso, Beattie and Bresnahan as a modifed 21-point open field locomoter scale on which to measure the extent of recovery of motor function in rats with after spinal cord injury. See, e.g, Basso et al., J. Neurotrauma 13(7):343-59 (1996); Beattie et al. (1997), herein incorporated by reference.\nAdult rat spinal cords were completely transected at the T8 cord level and the next caudal segment was removed (Xu et al. (1997), herein incorporated by reference). Schwann cells were purified in culture from adult rat sciatic nerve, suspended in Matrigel: DMEM (30:70), and drawn into 8 mm long polymeric guidance channels at a density of 120×10^6 cells/ml. Xu et al. (1997). Each cut stump was inserted 1 mm into the channel. At the time of transection, a Schwann cell bridge was implanted at the injury site and rolipram was delivered subcutaneously via minipump at 0.07 umol/kg/hour for two weeks as described in Example 3B. As a negative control, animals were delivered saline only. As a positive control, 5 ul of 10 mM dbcAMP was infused in the proximal and distal stump of the lesion in animals. Animals were assessed on a weekly basis for hindlimb locomotion, which is a measure of their motor recovery, using the BBB test."}}}
{"smiles": "COc1ccc(C2CNC(=O)C2)cc1OC1CCCC1", "note": "(centres unmarked) [rolipram]", "values": [{"measurement": "inhibition of axonal growth by myelin after priming", "setting": "[1]", "result": "overcomes inhibition"}, {"measurement": "subsequent inhibition of neuronal growth by MAG", "setting": "[2]; P12 rats, 7.5 nmol/kg s.c. every 3 hours for 24 hours", "result": "effectively blocks"}, {"measurement": "inhibition of neuronal growth by MAG", "setting": "[2]; P12 rats, 25 nmol/kg s.c. every 3 hours for 24 hours", "result": "essentially completely blocked"}, {"measurement": "most effective subcutaneous dose for relieving MAG inhibition", "setting": "[2]; P12 rats, s.c. every 3 hours for 24 hours", "result": 20, "unit": "nmol/kg"}, {"measurement": "neurite length on control CHO cells", "setting": "[2]; P12 rats, s.c. injections for 24 hours, control cells not expressing MAG", "result": "did not affect neurite length"}, {"measurement": "crossing of the blood brain barrier", "setting": "[2]; inferred from effect on cerebellar (CNS) and DRG neurons after s.c. administration", "result": "crossed the blood brain barrier"}, {"measurement": "axonal outgrowth in the presence of MAG and on control CHO cells", "setting": "[3]; 2 days", "result": "significantly promoted"}, {"measurement": "axonal outgrowth in the presence of MAG and on control CHO cells", "setting": "[3]; 3 days", "result": "even further promoted"}, {"measurement": "optimal continuous dose for subsequent neuronal growth and regeneration", "setting": "[3]; s.c. minipump, 0.4, 0.5, 0.7 umol/kg/hour tested", "result": 0.4, "unit": "µmol/kg/h"}, {"measurement": "inhibition of DRG neurons by MAG after 24 hours of continuous treatment", "setting": "[3]; s.c. minipump, 24 hours", "result": "no longer inhibited by MAG"}, {"measurement": "concentrations at which sedative effects were demonstrated", "setting": "rats", "result": "5 to 10", "unit": "µmol/kg"}, {"measurement": "memory improving effects", "setting": "mice; 3.0 umol/kg", "result": "did not have memory improving effects"}, {"measurement": "side effects", "setting": "mice; 0.1-3.0 umol/kg", "result": "No side effects"}, {"measurement": "performance in a hippocampus-dependent memory task", "setting": "mice; mice, 0.1 umol/kg s.c.", "result": "improved the performance"}, {"measurement": "anti-inflammatory effect", "setting": "[4]", "result": "demonstrated"}, {"measurement": "BBB score (motor recovery)", "setting": "[5]; adult rats, complete transection at T8, Schwann cell bridge, minipump s.c. 0.07 umol/kg/hour for two weeks, vs saline", "result": "significantly increases"}, {"measurement": "BBB score compared with administration of dbcAMP", "setting": "[5]; rolipram 0.07 umol/kg/hour s.c., dbcAMP 5 ul of 10 mM infused in the stumps", "result": "essentially the same result"}]}
